# Like-named read-outs stand apart in the source and are kept apart here.
# Experiments:
# [1] = tested on: macrophages loaded with cholesterol ester; experiment: Cholesterol esterification in macrophages loaded with cholesterol ester; type: cell-based, mouse; conditions: Figure 4; for relative potency on cholesterol esterification: cholesterol ester loaded macrophages
# Method: Cholesterol esterification induced by AcLDL in mouse peritoneal macrophages was investigated as follows. Mouse peritoneal macrophages were obtained by peritoneal lavage from mice (Balb/c Charles River, Calco, Italy) three days after intraperitoneal injection of thioglycolate. Cells (2-3x10^6) were plated in 35 mm wells with Dulbecco's minimum essential medium containing 10% fetal bovine serum. After 3 hours, the dishes were washed to eliminate unattached cells and maintained in Dulbecco's minimum essential medium plus 10% fetal bovine serum for 24 hours before use. After cell plating, experiments were performed at 37°C in serum free Dulbecco's minimum essential medium containing 0.2% essentially fatty acid-free bovine serum albumin plus the indicated additions. Human LDL (d=1.019-1.063 g/ml) were isolated from plasma of healthy volunteers by sequential ultracentrifugation (Beckman L5-50, Palo Alto, CA). For acetylation, LDL were dialysed against 0.15 M NaCl, pH 7.4, diluted with an equal volume of saturated sodium acetate and treated with acetic anhydride. For [^125I]AcLDL, lipoproteins were labelled with sodium [^125I]iodide desalted by gel filtration on Sephadex G-25 eluted with phosphate buffered saline. Specific activity was 100-200 cpm/ng protein. Trichloroacetic acid non precipitable radioactivity was below 2% of total. All lipoproteins were sterile filtered. Cells were incubated for 24 hours with the tested compounds. After substitution of the medium with an identical one, incubation was continued for additional 24 hours. During this second incubation [^125I]AcLDL were added (50 µg/ml). Cholesterol esterification was measured after addition of [1-^14C] oleic acid ([…] sample) complexed with bovine serum albumin during the last 1 or 2 hours of incubation and subsequent determination of radioactivity associated with cellular cholesteryl esters. Where indicated cells were enriched with cholesterol by 24 hours incubation with 50 µg/ml of AcLDL before drug addition and experimental determinations.
# Another set of experiments was performed to evaluate the effect of lercanidipine on cholesterol esterification in macrophages loaded with cholesterol ester before the addition of the compound, this condition being the same as in foam cells. Cells are loaded with cholesteryl esters by exposure for 24 hours to a medium containing 50 µg acetyl LDL.
# [2] = tested on: Human vascular myocytes (A 617 from human femoral artery); experiment: Myocytes growth inhibition measured by cell count (human); type: cell-based; conditions: cell count after 72 hours with 10% fetal calf serum, read-out: IC50 (concentration required to inhibit cell growth by 50%)
# Method: Migration of myocytes was investigated for the present invention using rat aortic smooth muscle cells in the presence of fibrinogen as chemotactic factor, whereas for studies on their proliferation rat and human cells were used. Cell count and [^3H]-thymidine incorporation were used to evaluate myocytes growth. The methodology was as follows:
# Myocytes were cultured from the intima-medial layer of the aortas of male Sprague-Dawley rats (200-250 g). Cells were grown in monolayers at 37°C in a humidified atmosphere of 5% CO2 in Eagle's minimum essential medium supplemented with 10% (v/v) fetal calf serum, 100 U/ml penicillin, 0.1 mg/ml streptomycin, 20 mM tricine buffer and 1% (v/v) non-essential amino acid solution. The medium was changed every third day. Cells were used between the 4th and 10th passage. Cell viability was timely assessed by tripan blue exclusion. Myocytes were identified for growth behaviour, morphology and using monoclonal antibody specific for a-actin, the actin isoform typical of myocytes. Human vascular myocytes (A 617 from human femoral artery) were grown in the same culture conditions. […] Cell proliferation was evaluated by cell count after trypsinization of the monolayers using a Coulter Counter model ZM. Cell viability was assessed by tripan blue exclusion, and found to be higher than 95% at the drug concentrations used.
# [3] = tested on: rat aortic smooth muscle cells (myocytes); experiment: Myocytes growth inhibition measured by cell count (rat); type: cell-based; conditions: 72 h, cell count after 72 hours with 10% fetal calf serum, read-out: IC50 (concentration required to inhibit cell growth by 50%)
# renal hypertensive dogs = experiment: Blood pressure in renal hypertensive dogs, oral administration; type: in vivo, beagle dogs; conditions: for ED25 (dose inducing 25% decrease in DBP at peak effect), 95% C.L.: renal hypertensive dogs, linear regression analysis
# Method: The antihypertensive effects of oral assumption of lercanidipine and its enantiomers were tested in renal hypertensive dogs.
# Male beagle dogs weighing 12-13 kg, aged 1-3 years (Nossan Allevamenti, Italy) were used. Chronic sustained hypertension was induced by bilateral renal artery constriction, according to the Goldblatt method "two-kidney, two clip hypertension". Under barbiturate anaesthesia (35 mg/kg iv.) during two different surgical interventions one month apart from each other, both renal arteries were clipped with original renal silver clips and narrowed by about 60-70 %. After two months from the last intervention, an experimental renal hypertension was produced and the animals were suitable for the implantation of a catheter. Under sodium pentobarbital anaesthesia (35 mg/kg iv.), in sterile conditions, the dogs were catheterized by inserting an indwelling cannula (PE 200 Clay Adams) into the ascending aorta through the right common carotid artery. The catheter was subcutaneously exteriorized at the back of the neck, filled with heparinized saline solution and daily flushed to prevent clotting. After a week to recover from surgery, the animals were connected to a HP 1290A pressure transducer connected to an HP 8805B carrier amplifier of a Hewlett Packard HP 7700 multichannel polygraph, in order to monitor the arterial blood pressure. Heart rate was manually computed from the pressure trace.
# All animals were alternatively treated with placebo, lercanidipine and its (R)- and (S)-enantiomers. The drugs were administered by the oral route with a straight round aseptic tip catheter (Pores Serlat - France). The drugs were suspended in aqueous 0.5% Methocel A4C plus Antifoam M10 (10%). The administered volume was 1 ml/kg. The suspending medicine was used as placebo. During experimental performance, the arterial blood pressure was continuously recorded 30 minutes before (Basal Values) and up to 8 hours after drug administration.
# The ED25 values (dose inducing 25% decrease in DBP at peak effect) were evaluated by linear regression analysis and are summarized in Table 4.
# LDL = experiment: Cu++-mediated LDL oxidation, conjugated diene formation at 234 nm; type: physicochemical, human; design: Lag time: unit: min; conditions: for Lag time: 20 µM CuSO4, 25°C
# Method: Lercanidipine antioxidant capacity was evaluated by incubating LDL With 20 µM Cu^++ in the presence or absence of different concentrations of the tested compound (0.01 µM - 50 µM). LDL oxidation Was followed by monitoring conjugated diene formation at 234 nm. The experimental conditions were as follows. LDL (d = 1.019-1.063) were isolated from human pooled plasma by sequential ultracentrifugation at 4°C and 40,000 rpm in a 50Ti rotor, using a L5-50 ultracentrifuge (Beckman, Palo Alto, CA). LDL were then dialyzed against 0.15 M NaCl containing 0.01% ethylenediaminetetraacetic acid pH 7.4, sterilized by filtration through a […] millipore filter and kept at 4°C under nitrogen in the dark until use (up to 3 weeks). Before use LDL were dialysed against ethylenediaminetetraacetic acid free phosphate buffered saline pH 7.4 on Sephadex G-25 columns (PD-10, Pharmacia Fine Chemicals, Uppsala, Sweden) and then LDL were filtered through a sterile 0.22 µM filter. LDL in phosphate buffered saline (50 µg lipoprotein protein/ml) were oxidized by incubation at 25°C with 20 µM CuSO4 for 3 hours. The lercanidipine solution was prepared as a 10^-2 M stock solution in methanol and added as ethanol solution (maximum 1% v/v) prior to addition of copper. The effect of lercanidipine on the oxidation of LDL was determined by continuous monitoring the conjugated diene formation by recording the increase in the absorbance at 234 nm at 5 min intervals during a three hours period, against a phosphate buffered saline blank, using a UV spectrophotometer (Beckman DU 640) with continuous reading with a automatic 6-cell changer. The lag time of the onset of oxidation was calculated as the intercept between the line of the maximum slope of the propagation phase and the baseline where absorbance was that at time 0.
# [4] = tested on: cell-mediated oxidation of LDL; experiment: Time course of cell-mediated LDL oxidation; type: cell-based; conditions: 30 µM, after 10 hours incubation; Figure 7
# Method: The antioxidant capacity of lercanidipine and its enantiomers was investigated also on cell-mediated oxidation. This was evaluated by incubating ethylenediaminetetraacetic acid free LDL under sterile conditions With 5 µM Cu^++ (100 µg Apo B/ml) in the presence of J774 cells or alternatively with EAhy-926 cells. Oxidation was blocked after 22 hours incubation by adding butylated hydroxytoluene to the medium (final concentration 40 µM) dissolved in ethanol. The extent of lipid peroxidation was measured by determining the percentage inhibition of aldehydic breakdown products using the thiobarbituric acid assay [A.N. Hanna et al., Biochem. Pharmacol. 45, 753 (1993)]. Briefly, to 0.250 ml of the incubated samples, 0.750 ml of trichloroacetic acid ([…]) was added followed by 0.750 ml of thiobarbituric acid (0.67% w/v). The samples were heated at 100°C for 20 min, followed by cooling and centrifugation. Malondialdehyde equivalents were calculated using 1,1,3,3-tetramethoxy-propane as standard.
# In the above experiments of cell-mediated oxidation the effects of lercanidipine were investigated after 22 hours incubation. […]
# [5] = tested on: mouse peritoneal macrophages; experiment: Cholesterol esterification induced by AcLDL in macrophages; type: cell-based; conditions: comparison of lercanidipine and enantiomers; Figure 3
# Method: Cholesterol esterification induced by AcLDL in mouse peritoneal macrophages was investigated as follows. Mouse peritoneal macrophages were obtained by peritoneal lavage from mice (Balb/c Charles River, Calco, Italy) three days after intraperitoneal injection of thioglycolate. Cells (2-3x10^6) were plated in 35 mm wells with Dulbecco's minimum essential medium containing 10% fetal bovine serum. After 3 hours, the dishes were washed to eliminate unattached cells and maintained in Dulbecco's minimum essential medium plus 10% fetal bovine serum for 24 hours before use. After cell plating, experiments were performed at 37°C in serum free Dulbecco's minimum essential medium containing 0.2% essentially fatty acid-free bovine serum albumin plus the indicated additions. Human LDL (d=1.019-1.063 g/ml) were isolated from plasma of healthy volunteers by sequential ultracentrifugation (Beckman L5-50, Palo Alto, CA). […] Trichloroacetic acid non precipitable radioactivity was below 2% of total. […] Cholesterol esterification was measured after addition of [1-^14C] oleic acid ([…] sample) complexed with bovine serum albumin during the last 1 or 2 hours of incubation and subsequent determination of radioactivity associated with cellular cholesteryl esters. […]
smiles,measurement,setting,value
"COC(=O)C1=C(C)NC(C)=C(C(=O)OC(C)(C)CN(C)CCC(c2ccccc2)c2ccccc2)C1c1cccc([N+](=O)[O-])c1 (racemic) [Lercanidipine, methyl 1,1,N-trimethyl-N-(3,3-diphenylpropyl)-2-aminoethyl 1,4-dihydro-2,6-dimethyl--4-(3-nitrophenyl)-pyridine-3,5-dicarboxylate]",IC50,"[1]; Mus musculus, Macrophage, cells loaded 24 hours with 50 µg acetyl LDL",~7 µM
same,inhibition of cholesterol esterification,"[1]; maximum, cells loaded 24 hours with 50 µg acetyl LDL",up to 70%
same,IC50,[2],25.3 µM
same,IC50,[3]; Myocytes from SD Rat,31.2 µM
same,IC50,[3]; Myocytes from SHR Rat,14.1 µM
same,IC50,[3]; Myocytes from WK Rat,16.4 µM
same,effect on arterial blood pressure,renal hypertensive dogs,dose-related decrease in arterial blood pressure
same,effect on the lag-phase of LDL oxidation,LDL; 10 µM,doubled the lag-phase of LDL oxidation
same,potency on LDL oxidation compared with lacidipine,"LDL; ""in these assays"" (LDL oxidation)",one order of magnitude higher than that of lacidipine
same,Lag time,LDL; Lercanidipine 0.5 µM,45.1 ± 3.7
same,Lag time,LDL; Lercanidipine 1.0 µM,49.8 ± 4.7
same,Lag time,"LDL; Lercanidipine 2.5 µM, P < 0.05",53.6 ± 3.3
same,Lag time,"LDL; Lercanidipine 5.0 µM, P < 0.01",73.2 ± 4.8
same,Lag time,"LDL; Lercanidipine 10.0 µM, P < 0.01",112.7 ± 5.2
same,inhibition of lipid oxidation,[4],very high inhibition of lipid oxidation
"COC(=O)C1=C(C)NC(C)=C(C(=O)OC(C)(C)CN(C)CCC(c2ccccc2)c2ccccc2)[C@@H]1c1cccc([N+](=O)[O-])c1 [(R)-Lercanidipine, (R)-(-)-methyl 1,1-N-triethyl-N-(3,3-diphenylpropyl)-2-aminoethyl 1,4-dihydro--2,6-dimethyl-4-(3-nitrophenyl)-pyridine-3,5-dicarboxylate]",relative potency on cholesterol esterification,[1],slightly more potent than the racemate
same,relative activity on cholesterol esterification induced by AcLDL,[5],most active compound
same,"ED25 (dose inducing 25% decrease in DBP at peak effect), 95% C.L.",renal hypertensive dogs,> > 30 mg/kg
"COC(=O)C1=C(C)NC(C)=C(C(=O)OC(C)(C)CN(C)CCC(c2ccccc2)c2ccccc2)[C@H]1c1cccc([N+](=O)[O-])c1 [(S)-Lercanidipine, (S)-(+)-methyl 1,1-N-trimethyl-N-(3,3-diphenylpropyl)-2-aminoethyl 1,4-dihydro--2,6-dimethyl-4-(3-nitrophenyl)-pyridine-3,5-dicarboxylate]",relative potency on cholesterol esterification,[1],least potent among the compounds tested
same,antihypertensive efficacy compared with the racemate,renal hypertensive dogs,two fold more efficacious than the racemate
same,effect on arterial blood pressure,renal hypertensive dogs,dose-related decrease in arterial blood pressure
same,"ED25 (dose inducing 25% decrease in DBP at peak effect), 95% C.L.",renal hypertensive dogs,0.4 (0.3 ö 0.7) mg/kg
"CCOC(=O)C1=C(C)NC(C)=C(C(=O)OCC)C1c1ccccc1/C=C/C(=O)OC(C)(C)C [LA, Lacidipine, reference compound]",IC50,[3]; Myocytes from SD Rat,23.6 µM
"COC(=O)C1=C(C)NC(C)=C(C(=O)OCCN(C)Cc2ccccc2)C1c1cccc([N+](=O)[O-])c1 (stereo not drawn) [NI, Nicardipine, reference compound]",IC50,[3]; Myocytes from SD Rat,38.8 µM
